The source of these data is patent publication US20050043374A1, “Aryl substituted oxazolidinones with antibacterial activity” (priority 2001, published 2005).

Converted amounts (≈) assume the structure as drawn.

What all share (type): cell-based
The test system of assay [1] is Staphylococcus aureus MRQR (methicillin resistant and quinolone resistant). The assay can be described thus: MIC, agar dilution, staphylococci. Particulars: inoculum 10^4 CFU/spot, 37° C., 24 hours. As to the method:
(§1) The following results were obtained on a standard in-vitro test system. The activity is described in terms of the minimum inhibitory concentration (MIC) determined by the agar-dilution technique with an inoculum size of 10^4 CFU/spot. Typically, compounds are active in the range 0.01 to 256 μg/ml.
(§2) Staphylococci were tested on agar, using an inoculum of 10^4 CFU/spot and an incubation temperature of 37° C. for 24 hours—standard test conditions for the expression of methicillin resistance.

Assay [2] concerns Staphylococcus aureus MSQS (methicillin sensitive and quinolone sensitive). Nature of the assay: MIC, agar dilution, staphylococci. Particulars: inoculum 10^4 CFU/spot, 37° C., 24 hours. As to the method: as §1, §2
The next assay has as its system Streptococcus pneumoniae. Nature of the assay: MIC, agar with 5% defibrinated horse blood, streptococci. The following applies: 10^4 CFU/spot, 37° C., 5% carbon dioxide, 48 hours. The method, then:
as §1
(§3) Streptococci and enterococci were tested on agar supplemented with 5% defibrinated horse blood, an inoculum of 10^4 CFU/spot and an incubation temperature of 37° C. in an atmosphere of 5% carbon dioxide for 48 hours—blood is required for the growth of some of the test organisms. Fastidious Gram negative organisms were tested in Mueller-Hinton broth, supplemented with hemin and NAD, grown aerobically for 24 hours at 37° C., and with an innoculum of 5×10^4 CFU/well.

Another assay deals with Streptococcus pyogenes. The assay is described as above. Particulars: 10^4 CFU/spot, 37° C., 5% carbon dioxide, 48 hours. As to the method: as §1, §3
Another assay relates to Haemophilus influenzae. Nature of the assay: MIC, Mueller-Hinton broth with hemin and NAD, fastidious Gram negative organisms. The following applies: aerobic, 24 hours, 37° C., 5×10^4 CFU/well. As to the method: as §1, §3
A further assay relates to Moraxella catarrhalis. The description is as above. The following applies: aerobic, 24 hours, 37° C., 5×10^4 CFU/well. As to the method:
as §1, §3

For `N#Cc1nnc(-c2ccc(N3C[C@H](Cn4ccnn4)OC3=O)cc2F)s1` [Example 1, (5R)-3-(3-Fluoro-4-(5-cyano-1,3,4-thiadiazol-2-yl)phenyl)-5-(1H-1,2,3-triazol-1-ylmethyl)-1,3-oxazolidin-2-one], the MIC in assay [1] turned out to be 0.25 µg/mL (≈ 0.673 µM); in assay [2], 0.125 µg/mL (≈ 0.337 µM); against Streptococcus pneumoniae, 0.125 µg/mL (≈ 0.337 µM); against Streptococcus pyogenes, 0.125 µg/mL (≈ 0.337 µM); in the assay with Haemophilus influenzae it was 2 µg/mL (≈ 5.39 µM); in the assay with Moraxella catarrhalis, 0.5 µg/mL (≈ 1.35 µM).
